Usually melting point stands for the temperature, or range, at which the solid turns liquid.

Consider 18 compounds from patent US7595313B2, “Nitric oxide donating diuretic compounds, compositions and methods of use” (NicOx, S.A., priority 2005, dated 2009).

One data set relates to Male Wistar rats. Kind of data set: Determination of the diuresis (urine volume over 6 hours after oral dosing). It counts as in vivo, rat. Here is the method: Procedures were approved by the Institutional Animal Care and Use Committee of NitroMed, Inc. Male Wistar rats (180-200 g) were purchased from Charles River Laboratories (Kingston, N.Y. or Raleigh, N.C.) and allowed to acclimate in the facility for a period of at least 72 h. Rats were randomly housed 2-3 per cage in a light-controlled room with a 12 hour light/dark cycle and allowed ad libitum access to food and water.
Prior to the experiment, each rat was placed in a metabolic cage and allowed to acclimate for a period of 24-48 hours with food and water ad libitum. During this acclimation period, rats received mash food instead of pellet food to prevent contamination of the urine samples. All rats were fasted for 18 hours prior to experimentation. In addition, water was removed 90 minutes prior to oral dosing with test compound or vehicle.
The test compounds were prepared immediately prior to dosing in 0.5% Methocel (F4M Premium Hydroxypropyl Methylcellulose, lot # PF12012N12; Dow Chemical Company, USA) and homogenized with a glass/Teflon pestle motorized homogenizer. Gently vortexed test compounds were administered intragastrically (p.o.; 30 mg/kg or 3 mg/kg) at a dose volume of 3 ml per rat using an 18 gauge gavage needle. Urine volume (ml) was monitored and urine was collected for subsequent electrolyte analysis over a 6 hours period. […] Data are expressed as mean ±SEM; n=6 or 7.

Setting [1] is: p.o. 30 mg/kg in 0.5% Methocel, male Wistar rats, 6 hours, mean ± SEM, n=6 or 7.
The mark [2] stands for this setting: p.o. 3 mg/kg in 0.5% Methocel, male Wistar rats, 6 hours, mean ± SEM, n=6 or 7.

With `Cc1c(C2Nc3cc(Cl)c(S(N)(=O)=O)cc3S(=O)(=O)N2)no[n+]1[O-]` (stereo not drawn) [Example 9b, 2H-1,2,4-Benzothiadiazine-7-sulfonamide, 6-chloro-3,4-dihydro-3-(4-methyl-5-oxido-1,2,5-oxadiazol-3-yl)-, 1,1-dioxide], the melting point is 242 to 243 °C (dec.). In addition, the “Urine collected in 6 hours (mL) (30 mg/kg)” value (“Urine collected … (30 mg/kg)” below) with Male Wistar rats (setting [1]) was found to be 6.7 ± 0.8 mL.

On to `NS(=O)(=O)c1cc2c(cc1Cl)NC(CNC(=O)CN(CCO[N+](=O)[O-])CCO[N+](=O)[O-])NS2(=O)=O` (stereo not drawn) [Example 57c, Acetamide, N-[[7-(aminosulfonyl)-6-chloro-3,4-dihydro-1,1-dioxido-2H-1,2,4-benzothiadiazin-3-yl]methyl]-2-[bis[2-(nitrooxy)ethyl]amino]-], for which the melting point was 118 °C (dec.). In the data set with Male Wistar rats (rat, in vivo, po), the “Urine collected in 6 hours (mL) (3 mg/kg)” value (“Urine collected … (3 mg/kg)” for short) is 3.6 ± 0.6 mL.

The compound `NS(=O)(=O)c1cc2c(cc1Cl)NC(CCCC(=O)NCCO[N+](=O)[O-])=NS2(=O)=O` [Example 14, 4H-1,2,4-Benzothiadiazine-3-butanamide, 7-(aminosulfonyl)-6-chloro-N-[2-(nitrooxy)ethyl]-, 1,1-dioxide] registered a melting point of 168 to 170 °C. Besides, in the data set with Male Wistar rats (setting [1]), the “Urine collected … (30 mg/kg)” value was 4.0 ± 0.4 mL.

Take `NS(=O)(=O)c1cc2c(cc1Cl)NC(CCCC(=O)NC[C@@H](CO[N+](=O)[O-])O[N+](=O)[O-])=NS2(=O)=O` [Example 21b, 4H-1,2,4-Benzothiadiazine-3-butanamide, 7-(aminosulfonyl)-N-[(2S)-2,3-bis(nitrooxy)propyl]-6-chloro-, 1,1-dioxide]: the melting point is 140 °C (dec.). The “Urine collected … (30 mg/kg)” value in the data set on Male Wistar rats (rat, in vivo, po) came out at 2.7 ± 0.3 mL.

The compound `NS(=O)(=O)c1cc2c(cc1Cl)NC(CCCO[N+](=O)[O-])NS2(=O)=O` (stereo not drawn) [Example 8, 2H-1,2,4-Benzothiadiazine-7-sulfonamide, 6-chloro-3,4-dihydro-3-[3-(nitrooxy)propyl]-, 1,1-dioxide] registered a melting point of 178 to 181 °C. Moreover, in the data set with Male Wistar rats (setting [1]), the “Urine collected … (30 mg/kg)” value turned out to be 6.2 ± 0.7 mL.

Take `CC1(C)CC(CC2Nc3cc(Cl)c(S(N)(=O)=O)cc3S(=O)(=O)N2)CC(C)(C)N1O` (stereo not drawn) [Example 76b, 1-Piperidinyloxy, 4-[[7-(aminosulfonyl)-6-chloro-3,4-dihydro-1,1-dioxido-2H-1,2,4-benzothiadiazin-3-yl]methyl]-2,2,6,6-tetramethyl-]: the melting point fell in the range of 238 to 240 °C. The “Urine collected … (3 mg/kg)” value with Male Wistar rats (p.o. 3 mg/kg in 0.5% Methocel, male Wistar rats, 6 hours, mean ± SEM, n=6 or 7, 3 mg/kg) is given as 2.2 ± 0.4 mL.

The compound `NS(=O)(=O)c1cc2c(cc1Cl)NCN(CC(=O)NCCCO[N+](=O)[O-])S2(=O)=O` [Example 34, 2H-1,2,4-Benzothiadiazine-2-acetamide, 7-(aminosulfonyl)-6-chloro-3,4-dihydro-N-[3-(nitrooxy)propyl]-, 1,1-dioxide] came in with a melting point of 138 to 141 °C. Also, the “Urine collected … (3 mg/kg)” value with Male Wistar rats (setting [2]) was 2.8 ± 0.3 mL.

Turning to `NS(=O)(=O)c1cc2c(cc1C(F)(F)F)NC(CCC(CO[N+](=O)[O-])O[N+](=O)[O-])NS2(=O)=O` (stereo not drawn) [Example 7, 2H-1,2,4-benzothiadiazine-7-sulfonamide, 3-[3,4-bis(nitrooxy)butyl]-3,4-dihydro-6-(trifluoromethyl)-, 1,1-dioxide], the melting point is 157 to 160 °C (dec.). In the data set with Male Wistar rats (rat, in vivo, po), the “Urine collected … (30 mg/kg)” value was 5.7 ± 0.4 mL.

In the case of `NS(=O)(=O)c1cc2c(cc1Cl)NCN(CCCC(=O)O)S2(=O)=O` [Example 53c, 2H-1,2,4-Benzothiadiazine-2-butanoic acid, 7-(aminosulfonyl)-6-chloro-3,4-dihydro-, 1,1-dioxide], the melting point fell in the range of 72 to 78 °C. Also, the “Urine collected … (3 mg/kg)” value with Male Wistar rats (setting [2]) is 3.7 ± 0.4 mL.

As to `NS(=O)(=O)c1cc2c(cc1Cl)NC(CCc1cc(CO[N+](=O)[O-])cc(CO[N+](=O)[O-])c1)NS2(=O)=O` (stereo not drawn) [Example 80b, 2H-1,2,4-Benzothiadiazine-7-sulfonamide, 3-[2-[3,5-bis[(nitrooxy)methyl]phenyl]ethyl]-6-chloro-3,4-dihydro-, 1,1-dioxide], the melting point fell in the range of 101 to 104 °C. Moreover, the “Urine collected … (3 mg/kg)” value in the data set with Male Wistar rats (rat, in vivo, po) came out at 3.9 ± 0.5 mL.

In turn, `NS(=O)(=O)c1cc2c(cc1Cl)NCN(CCCC(CO[N+](=O)[O-])O[N+](=O)[O-])S2(=O)=O` (stereo not drawn) [Example 43b, 2H-1,2,4-Benzothiadiazine-7-sulfonamide, 2-[4,5-bis(nitrooxy)pentyl]-6-chloro-3,4-dihydro-, 1,1-dioxide] yielded a melting point of 49 to 53 °C. Also, the “Urine collected … (3 mg/kg)” value in the data set with Male Wistar rats (rat, in vivo, po) came out at 3.0 ± 0.6 mL.

`NS(=O)(=O)c1cc2c(cc1Cl)NCN(CC[C@H](CO[N+](=O)[O-])O[N+](=O)[O-])S2(=O)=O` [Example 73b, 2H-1,2,4-Benzothiadiazine-7-sulfonamide, 2-[(3R)-3,4-bis(nitrooxy)butyl]-6-chloro-3,4-dihydro-, 1,1-dioxide] returned a melting point of 158 to 162 °C. Further, the “Urine collected … (3 mg/kg)” value in the data set with Male Wistar rats (rat, in vivo, po) came to 3.8 ± 0.5 mL.

`NS(=O)(=O)c1cc2c(cc1Cl)NC(CCC(=O)NCCOCCO[N+](=O)[O-])=NS2(=O)=O` [Example 13, 4H-1,2,4-Benzothiadiazine-3-propanamide, 7-(aminosulfonyl)-6-chloro-N-[2-[2-(nitrooxy)ethoxy]ethyl]-, 1,1-dioxide] came in with a melting point of 175 to 178 °C. For the same compound, the “Urine collected … (30 mg/kg)” value with Male Wistar rats (setting [1]) was 2.2 ± 0.5 mL.

Consider `NS(=O)(=O)c1cc2c(cc1C(F)(F)F)NC(CCCO[N+](=O)[O-])NS2(=O)=O` (stereo not drawn) [Example 3d, 2H-1,2,4-Benzothiadiazine-7-sulfonamide, 3,4-dihydro-3-[3-(nitrooxy)propyl]-6-(trifluoromethyl)-, 1,1-dioxide], for which the melting point was 165 °C (dec.). For the same compound, the “Urine collected … (30 mg/kg)” value in the data set on Male Wistar rats (setting [1]) worked out at 5.3 ± 0.8 mL.

Compound `NS(=O)(=O)c1cc2c(cc1Cl)NCN(CCOc1cc(CO[N+](=O)[O-])cc(CO[N+](=O)[O-])c1)S2(=O)=O` [Example 71c, 2H-1,2,4-Benzothiadiazine-7-sulfonamide, 2-[2-[3,5-bis[(nitrooxy)methyl]phenoxy]ethyl]-6-chloro-3,4-dihydro-, 1,1-dioxide] displayed a melting point of 72 to 75 °C. For the same compound, the “Urine collected … (3 mg/kg)” value with Male Wistar rats (rat, in vivo, po) is given as 1.3 ± 0.6 mL.

`CN(CCO[N+](=O)[O-])C(=O)CN1CNc2cc(Cl)c(S(N)(=O)=O)cc2S1(=O)=O` [Example 38, 2H-1,2,4-Benzothiadiazine-2-acetamide, 7-(aminosulfonyl)-6-chloro-3,4-dihydro-N-methyl-N-[2-(nitrooxy)ethyl]-, 1,1-dioxide] displayed a melting point of 160 to 165 °C. The “Urine collected … (3 mg/kg)” value in the data set with Male Wistar rats (setting [2]) was found to be 4.5 ± 0.6 mL.

`NS(=O)(=O)c1cc2c(cc1Cl)NCN(C(CO)CO)S2(=O)=O` [Example 78b, 2H-1,2,4-Benzothiadiazine-7-sulfonamide, 6-chloro-3,4-dihydro-2-[2-hydroxy-1-(hydroxymethyl)ethyl]-, 1,1-dioxide] came in with a melting point of 139 to 143 °C. The “Urine collected … (3 mg/kg)” value with Male Wistar rats (setting [2]) was 2.7 ± 0.8 mL.

`NS(=O)(=O)c1cc2c(cc1Cl)NC(CCCC(=O)NC[C@H](CO[N+](=O)[O-])O[N+](=O)[O-])=NS2(=O)=O` [Example 11, 4H-1,2,4-Benzothiadiazine-3-butanamide, 7-(aminosulfonyl)-N-[(2R)-2,3-bis(nitrooxy)propyl]-6-chloro-, 1,1-dioxide] yielded a melting point of more than 220 °C. In addition, in the data set on Male Wistar rats (rat, in vivo, po), the “Urine collected … (30 mg/kg)” value is 3.7 ± 0.3 mL.
